Consider six compounds from ChEMBL document CHEMBL5126645, “Cancer-Cell-Selective Targeting by Arylcyclopropylamine-Vorinostat Conjugates” (ACS Med Chem Lett, 2022).

Series [1] can be described thus: Stability of compound in HEPES buffer at pH 7.4 at 100 uM incubated for 24 hrs by HPLC analysis. As to conditions: pH 7.4, 24 h. The format is physicochemical.
A further series has as its system NCI-H526. The experiment in a line: cells. The format is functional. As to conditions: Homo sapiens, NCI-H526, 72 h; time 3 day.
Series [2] concerns MDA-MB-231. Put plainly: cells. The format is functional. The conditions noted are these: Homo sapiens, MDA-MB-231, 72 h; time 3 day.
Description: Antiproliferative activity against human MDA-MB-231 cells assessed as inhibition of cell growth incubated for 3 days by alamar blue assay
Series [3] addresses T1, Lysine-specific histone demethylase 1A (Homo sapiens, UniProt O60341).
Description: Inhibition of LSD1 (unknown origin) using H3K4me2 peptide as substrate preincubated for 15 mins followed by substrate addition and measured after 30 mins by fluorescence based analysis
In series [4] the target is Histone deacetylase 1 (Homo sapiens) (UniProt Q13547). Put plainly: Inhibition of HDAC1 in human NCI-H526 cells assessed as increase in H3K9 acetylation at 16 uM measured after 24 to 72 hrs by Western blot analysis. The format is cell-based. As to conditions: time 24-72 hrs.
Series [5] in a line: in vitro. As to conditions: human, HMEC cells versus NCI-H526 cells.
Description: Selectivity index, ratio of IC50 for cytotoxicity against HMEC cells to GI50 for antiproliferative activity against human NCI-H526 cells
Series [6] concerns MDA-MB-231. The experiment in a line: Synergistic antiproliferative activity against human MDA-MB-231 cells assessed as inhibition of cell growth incubated for 3 days in presence of LSD1 inhibitor, NCD38 by alamar blue assay. The conditions noted are these: time 3.0 day. The format is functional, cell-based. For orientation: The colour change of resazurin is a common sign of viable cells or microbes.

The target in series [7] is Histone deacetylase 1 (Homo sapiens) (UniProt Q13547). Put plainly: Inhibition of HDAC1 in human NCI-H526 cells assessed as increase in H3K4 methylation at 16 uM measured after 24 to 72 hrs by Western blot analysis. The format is cell-based. The conditions noted are these: time 24-72 hrs. (Immunoblotting shows a protein as a band on a membrane.)
Series [8] shares this target. Put plainly: Potency index, ratio of vorinostat IC50 to test compound IC50 for inhibition of HDAC1 human NCI-H526 cells measured after 24 to 72 hrs by Western blot analysis. As to conditions: time 24-72 hrs. The format is cell-based.
For series [9], the system named is MDA-MB-231. The experiment in a line: Synergistic antiproliferative activity against human MDA-MB-231 cells assessed as inhibition of cell growth incubated for 3 days in presence of vorinostat by alamar blue assay. The format is functional, cell-based. As to conditions: time 3.0 day.
Series [10] in a line: in vitro. As to conditions: human, HMEC cells versus MDA-MB-231 cells.
Description: Selectivity index, ratio of IC50 for cytotoxicity against HMEC cells to GI50 for antiproliferative activity against human MDA-MB-231 cells
The nature of series [11]: in vitro. As to conditions: human, HMEC cells.
Description: Cytotoxicity against HMEC cells assessed as inhibition of cell growth incubated for 3 days by alamar blue assay
The subject of series [12] is MDA-MB-231. Put plainly: Additive antiproliferative activity against human MDA-MB-231 cells assessed as inhibition of cell growth incubated for 3 days in presence of 4-(Chloromethyl)phenyl acetate by alamar blue assay. The format is functional, cell-based. As to conditions: time 3.0 day.
Series [13] concerns the target T1, Lysine-specific histone demethylase 1A. Put plainly: Prodrug conversion assessed as LSD1 (unknown origin)-mediated vorinostat release incubated for 24 hrs by HPLC analysis. The format is ADME.
The nature of series [14]: Stability of compound in buffer at pH 7.4. The format is physicochemical.
The target of series [15] is T1, Lysine-specific histone demethylase 1A. Put plainly: Potency index, ratio of phenylcyclopropylamine IC50 to test compound IC50 for inhibition of LSD1 (unknown origin) using H3K4me2 peptide as substrate preincubated for 15 mins followed by substrate addition and measured after 30 mins by fluorescence based analysis. The conditions noted are these: time 45.0 min.

Each structure is given as a SMILES string. Calls of active or inactive are those of the source. The calls are words filed in the database; no cut-off is given here.

Histone deacetylase 1 (Homo sapiens), sequence (Q13547 whole entry): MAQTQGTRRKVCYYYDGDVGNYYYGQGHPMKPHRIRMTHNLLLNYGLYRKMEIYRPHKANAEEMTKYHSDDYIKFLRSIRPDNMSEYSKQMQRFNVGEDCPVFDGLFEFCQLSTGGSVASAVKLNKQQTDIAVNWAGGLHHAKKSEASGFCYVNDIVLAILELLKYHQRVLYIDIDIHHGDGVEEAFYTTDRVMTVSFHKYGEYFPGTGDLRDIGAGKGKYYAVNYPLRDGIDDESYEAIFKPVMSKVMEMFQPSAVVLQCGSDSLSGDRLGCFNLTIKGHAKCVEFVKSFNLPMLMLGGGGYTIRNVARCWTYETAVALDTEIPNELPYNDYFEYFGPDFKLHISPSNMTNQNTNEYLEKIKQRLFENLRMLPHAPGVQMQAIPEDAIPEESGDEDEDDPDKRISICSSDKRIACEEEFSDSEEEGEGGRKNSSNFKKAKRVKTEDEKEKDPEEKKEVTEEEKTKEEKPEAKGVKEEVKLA
Description for NCI-H526: Antiproliferative activity against human NCI-H526 cells assessed as inhibition of cell growth incubated for 3 days by alamar blue assay

For the compound `CN(CCN(C)C1CC1c1ccccc1)C(=O)ONC(=O)CCCCCCC(=O)Nc1ccccc1` (centres undefined), the Stability entry in series [1] was “Unstable”.

As a reminder, the GI50 is the concentration that inhibits growth by half. A higher GI50 goes with lower sensitivity of the cells. As for `CC(=O)Oc1ccc(CCl)cc1`, the results for the GI50 in the series on NCI-H526 and with MDA-MB-231 [2] were 2020 nM and 2.05 µM, respectively.

What is called IC50 is the point on the concentration scale where inhibition reaches its midpoint. Low values mean greater potency in that assay, high ones weaker potency in that assay. `CNC(=O)c1cccc(-c2ccc([C@@H]3C[C@H]3N(C)CCN(C)C(=O)Oc3ccc(CONC(=O)CCCCCCC(=O)Nc4ccccc4)cc3)cc2)c1` had an IC50 in series [3] of 444 nM.

As to `CNC(=O)c1cccc(-c2ccc(C3CC3N(C)CCN(C)C(=O)Oc3ccc(CONC(=O)CCCCCCC(=O)Nc4ccccc4)cc3)cc2)c1` (racemic), the inhibition result in [4] and in [7] was “Active” in each case. For the same compound, the selectivity ratio in the series “in vitro [5]” was over 100; in “in vitro [10]”, over 22.3. For the same compound, the outcome in the series on MDA-MB-231 [6], with MDA-MB-231 [9] and with MDA-MB-231 [12] was Active. Besides, the GI50 in the series on NCI-H526 was 1000 nM; in the series on MDA-MB-231 [2] it was 4.49 µM. In addition, the Ratio IC50 in series [8] worked out at 40. For the same compound, the IC50 at 3 days in “in vitro [11]” is over 100 µM. In [3], this compound registered an IC50 of 126 nM.

In turn, `CNC(=O)c1cccc(-c2ccc([C@H]3C[C@@H]3N(C)CCN(C)C(=O)Oc3ccc(CONC(=O)CCCCCCC(=O)Nc4ccccc4)cc3)cc2)c1` returned an IC50 in series [3] of 457 nM.

On to `CN(CCN(C)C1CC1c1ccccc1)C(=O)Oc1ccc(CONC(=O)CCCCCCC(=O)Nc2ccccc2)cc1` (centres undefined), for which the Drug metabolism entry in [13] was “Metabolite_Detected”. In series [14], the Stability entry is on record as “Stable”. Besides, the Ratio IC50 in [15] amounted to 19. Further, in the series “in vitro [10]”, the selectivity ratio is over 2.92. The GI50 in the series with MDA-MB-231 [2] was found to be 34.3 µM. The compound also came in with an IC50 at 3 days in “in vitro [11]” of over 100 µM. Moreover, the IC50 in series [3] was 1290 nM.
